Structures are written as SMILES. Values after ≈ are worked out from the molar mass of the structure shown.

Data set [1] has as its system human colon cancer cell line (LOVO). The data set can be described thus: MTT in vitro tumor cell inhibition. It is filed as cell-based. The settings on record: 3 days. An excerpt: (§1) An effective amount of the above compounds and/or the compositions containing the same used as an active ingredient have an effect on inhibiting the tumor cells. The present invention detects the inhibitory effect of the hydroxy-substituted benzophenone compounds on the proliferation of the in vitro cultured human tumor cells by the methylthiazolyl tetrazolium method.
(§2) The method is used to detect cell viability. […] Particles can be dissolved by dimethyl sulfoxide (DMSO) isopropyl alcohol or 10% acidified SDS (sodium dodecyl sulfate), and a microplate reader is used to measure the OD value at A570 wavelength, which indirectly reflects the number of live cells. The method is used for detection of the cytokines bioactivity, as well as anti-tumor drugs and tumor radiosensitivity and cytotoxicity test, and has the characteristics of being simple, fast, economical, sensitive and accurate and having good reproducibility and no need to use radionuclides. This method has been widely used in screening preclinical anticancer drugs and detecting the drug sensitivity of fresh tumor cells. The method is as below:
(§3) (1) The tumor cell suspension prepared by 0.25% of trypsin digestion and adjusted to a cell concentration of 10^5/ml with RPMI1640 containing 10% fetal calf serum is added to a 96-well plate with 100 μl for each well, cultured 24 hours, and then different dosages of drugs are added with 100 μl/well, for which, the negative control groups, positive control groups and withering wells are set, and 4 parallel wells are set for each group.
(§4) (2) They are continually cultured in incubator containing 5% of CO2 at 37° C. for 24 to 48 hours. MTT solution (5 g/L) is added to each well before the termination of the experiment. The OD value at A570 nm is detected by microplate reader. The OD value at A570 of the negative group without the addition of drugs is taken as a control. The cell survival rate and cell inhibition rate of drugs are calculated according to the following formula: Cell survival rate=(OD value of test group/OD value of control group)×100% Cell inhibition rate (%)=(OD value of the control group−OD value of the test group/(OD value of the control group−OD value of the blank group)
(§5) 1. Tumor cell lines: human glioma cell line (U251), human colon cancer cell line (LOVO), human hepatoma cell line (HepG2), human lung cancer cell line (PC84045), human endometrial carcinoma cell line (JEC), human renal carcinoma (GRC), human gastric cancer cell line (MCG804), human cervical cancer cell line (HeLa), human hepatocellular carcinoma cell line (BEL-7402) and human umbilical vein endothelial cell line (ECV304) purchased from Animal Experimental Center of Zhongshan Medical College, and preserved by the present laboratory.
(§6) The tumor cell lines are cultured in RPMI-1640 medium containing 15% of the newborn bovine serum in a conventional manner, placed in the humidification incubator containing 5% of CO2 for being cultured at 37° C., and are observed for growth by an inverted microscope. A subculture is conducted every about 3-5 days, the cells in logarithmic growth phase are adopted to be digested with 0.25% of trypsin, and the serum-free RPMI-1640 medium is used for culturing the cell suspension; the blood counting plate makes counting, the trypan blue exclusion tests the cell activity, and the cell viability>95% is used for formal tests.
(§7) Liquid preparation: the compounds are labeled with the codes respectively, DMSO is used to dissolve each compound, the bacterial filter is used to remove bacteria, and each compound is prepared into 10^−4 g/ml, 10^−5 g/ml, 10^−6 g/ml and preserved at 4° C. for use. […]

Data set [2] concerns human gastric cancer cell line (MCG804). The data set can be described thus: MTT in vitro tumor cell inhibition. It is filed as cell-based. The settings on record: 3 days.
Text: as §1, §2, §3, §4, §5, §6, §7

For a further data set, the system named is Vero cells. Briefly: Half toxic concentration in the anti-herpes screening. In kind it is cell-based, African green monkey. As for the experimental part: Vero cells (kidney cells of African green monkey) are used as viral hosts to test the inhibition degree of the samples to cytopathic effects of the Vero cell caused by herpes virus type I and type II. 2. Sample treatment: the sample is dissolved in DMSO at an appropriate concentration before use, and diluted with the culture medium 3 times at a total of 8 dilutions for test. 4.

Data set [3] deals with human umbilical vein endothelial cell line (ECV304). Briefly: MTT in vitro cell inhibition. It is filed as cell-based. The settings on record: 3 days.
Text: as §1, §2, §3, §4, §5, §6, §7

A further data set deals with HSV-I, VR733 strain. The data set can be described thus: Inhibition of cytopathic effects of Vero cells caused by herpes virus type I. In kind it is cell-based. The settings on record: Human alphaherpesvirus 1; Vero cells, CPE 48 hours, Reed-Muench; read-out: IC50 Against HSV-1. The source says:
Vero cells (kidney cells of African green monkey) are used as viral hosts to test the inhibition degree of the samples to the cytopathic effects of Vero cells caused by herpes virus type I and type II.
Vero cells (kidney cells of African green monkey) are used as viral hosts to test the inhibition degree of the samples to cytopathic effects of the Vero cell caused by herpes virus type I and type II.
1. Virus strains: HSV-I, VR733 strain, and HSV-II, SAV strain, which both are provided by ATCC.
2. Sample treatment: the sample is dissolved in DMSO at an appropriate concentration before use, and diluted with the culture medium 3 times at a total of 8 dilutions for test.
3. Positive control drug: acyclovir (ACV) produced by the Hubei Ke Yi pharmaceutical factory.
In general terms: Cytopathic effects are the visible damage that an infection or toxin causes in cultured cells.

Regarding `O=C(c1cc(O)c(O)cc1O)c1ccc(O)c(O)c1O`, the Inhibitory rate % in data set [1] (10^−4 g/ml) came to 51.19%; in data set [2] (MCG804, 10^−4 g/ml), 83.48%; in data set [2] (MCG804, 10^−5 g/ml), 72.89%; in data set [3] (ECV304, 10^−4 g/ml), 72.41%; in data set [3] (ECV304, 10^−5 g/ml), 53.62%; in data set [3] (ECV304, 10^−6 g/ml), 30.75%. For the same molecule, the “Inhibitory rate, sensitivity class” value in data set [1] (10^−5 g/ml) is “insensitive (<30% means insensitive)”; in data set [1] (10^−6 g/ml), “insensitive (<30% means insensitive)”; in data set [2] (MCG804, 10^−6 g/ml) it was “insensitive (<30% means insensitive)”. Further, the “TC50 half toxic concentration” value in the data set on Vero cells worked out at 86.23 µg/mL (≈ 310 µM).

Consider `O=C(c1ccc(O)c(O)c1O)c1ccc(O)c(O)c1O` [2,3,4,2′,3′,4′-hexahydroxybenzophenone], for which the IC50 (in general, the concentration that gives 50% inhibition) in the data set on HSV-I, VR733 strain amounted to 28.7 µg/mL (≈ 103 µM). Further, the “Inhibitory rate, sensitivity class” value in data set [1] (10^−4 g/ml) is “insensitive (<30% means insensitive)”; in data set [1] (10^−5 g/ml), “insensitive (<30% means insensitive)”; in data set [1] (10^−6 g/ml), “insensitive (<30% means insensitive)”; in data set [2] (MCG804, 10^−6 g/ml), “insensitive (<30% means insensitive)”; in data set [3] (ECV304, 10^−5 g/ml), “insensitive (<30% means insensitive)”; in data set [3] (ECV304, 10^−6 g/ml) it was “insensitive (<30% means insensitive)”. Moreover, the Inhibitory rate % in data set [2] (MCG804, 10^−4 g/ml) amounted to 80.93%; in data set [2] (MCG804, 10^−5 g/ml), 30.12%; in data set [3] (ECV304, 10^−4 g/ml), 79.37%. In the data set with Vero cells, the “TC50 half toxic concentration” value amounted to 12.35 µg/mL (≈ 44.4 µM).

Regarding `O=C(c1ccccc1)c1ccc(O)c(O)c1O` [2,3,4-trihydroxybenzophenone], in the data set with HSV-I, VR733 strain, the IC50 was found to be 28.7 µg/mL (≈ 125 µM). The Inhibitory rate % in data set [1] (10^−4 g/ml) is reported as 90.02%; in data set [1] (10^−5 g/ml) it was 46.78%; in data set [2] (MCG804, 10^−4 g/ml), 87.14%; in data set [2] (MCG804, 10^−5 g/ml) it was 62.75%; in data set [3] (ECV304, 10^−4 g/ml), 89.63%; in data set [3] (ECV304, 10^−5 g/ml) it was 45.81%. The “Inhibitory rate, sensitivity class” value in data set [1] (10^−6 g/ml) is recorded as “insensitive (<30% means insensitive)”; in data set [2] (MCG804, 10^−6 g/ml) it was “insensitive (<30% means insensitive)”; in data set [3] (ECV304, 10^−6 g/ml), “insensitive (<30% means insensitive)”. Besides, in the data set on Vero cells, the “TC50 half toxic concentration” value was 53.42 µg/mL (≈ 232 µM).

`O=C(c1ccc(O)cc1O)c1ccc(O)cc1O` [2,4,2′,4′-tetrahydroxybenzophenone]: in the data set on HSV-I, VR733 strain, the IC50 turned out to be 28.7 µg/mL (≈ 117 µM). For the same molecule, the Inhibitory rate % in data set [1] (10^−4 g/ml) is 53.29%; in data set [2] (MCG804, 10^−4 g/ml) it was 38.95%; in data set [3] (ECV304, 10^−4 g/ml), 42.13%. In addition, the “Inhibitory rate, sensitivity class” value in data set [1] (10^−5 g/ml) is “insensitive (<30% means insensitive)”; in data set [1] (10^−6 g/ml), “insensitive (<30% means insensitive)”; in data set [2] (MCG804, 10^−5 g/ml), “insensitive (<30% means insensitive)”; in data set [2] (MCG804, 10^−6 g/ml), “insensitive (<30% means insensitive)”; in data set [3] (ECV304, 10^−5 g/ml), “insensitive (<30% means insensitive)”; in data set [3] (ECV304, 10^−6 g/ml), “insensitive (<30% means insensitive)”. Also, the “TC50 half toxic concentration” value with Vero cells worked out at 111.11 µg/mL (≈ 451 µM).

Source of the values: patent publication US10716769B2 (GUANGZHOU JTREAT BIOSCI. LTD., priority 2015, dated 2020).
